Assay in all cases: NCI anticancer screen, dose series, 48 h
In test [1] the test system is SN12C.
Test [2] has as its system HL-60.
The subject of test [3] is MOLT-4.
In test [4] the test system is 786-0.
Test [5] relates to SNB-19.
The test system of test [6] is SF-539.
Test [7] concerns HCC 2998.
In test [8] the test system is U-251.
Test [9] deals with UACC-62.
The test system of test [10] is OVCAR-5.
Test [11] has as its system HOP-92.
Test [12] concerns RXF 393.
Test [13] deals with TK-10.
The test system of test [14] is Hs-578T.
For test [15], the system named is MCF7.
Test [16] has as its system NCI-H226.
Test [17] relates to MDA-MB-435.
Test [18] has as its system HCT-116.
Test [19] deals with OVCAR-8.
Test [20] deals with MDA-N.

Experimental findings from ChEMBL document CHEMBL1201862, “PubChem BioAssay data set” (2004) are described below.

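Cultured in 96-well plates, cells were exposed to test compound for 48 hours across five concentrations. GI50 marks 50% less growth.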 Activity calls are given as the source filed them. No stated cut-off is given here; in the data, active = GI50 up to about 1.1 µM and inactive = higher.

`CC(=O)OCc1cc2ccccc2nc1C(Br)(Br)Br`: the GI50 was 13.2 µM (inactive) in test [1]; 14.9 µM (inactive) in test [2]; 9.02 µM (inactive) in test [3]; 19.4 µM (inactive) in [4]; 20.1 µM (inactive) in test [5]; 21.1 µM (inactive) in test [6]. Also, the GI50 was 15.4 µM (inactive) in test [7]; 14 µM (inactive) in [8]; 15.5 µM (inactive) in test [9]; 15.4 µM (inactive) in test [10]; 11.7 µM (inactive) in test [11]; 15.4 µM (inactive) in [12]. The GI50 in test [13] was 16.1 µM (inactive); in test [14], 27 µM (inactive); in [15], 14.7 µM (inactive); in test [16] it was 21.5 µM (inactive); in [17], 13.3 µM (inactive); in [18], 12.5 µM (inactive).

On to `Cn1c2ccccc2c2c3c(c4c5ccccc5n(C)c4c21)C(=O)NC3=O`, for which the GI50 was > 37.9 µM (inactive) in test [1]; 18.7 µM (inactive) in test [19]; > 100 µM (inactive) in [3]; 3.89 µM (inactive) in test [4]; 15.3 µM (inactive) in [5]; 10.2 µM (inactive) in [6]. The GI50 is > 33.7 µM (inactive) in test [7]; 16.8 µM (inactive) in [8]; > 32.9 µM (inactive) in test [9]; 72.8 µM (inactive) in test [10]; > 36.7 µM (inactive) in test [11]; 0.0589 µM (active) in test [12]. Further, the GI50 is 18.2 µM (inactive) in test [13]; 24.8 µM (inactive) in [14]; 37.8 µM (inactive) in test [15]; 40.7 µM (inactive) in test [16]; > 42.7 µM (inactive) in test [17]; > 64.1 µM (inactive) in test [18].

Consider `Cc1cc(C)nc(NS(=O)(=O)c2ccc(NC(=O)c3ccc4nc5ccccc5c(Nc5ccc(S(N)(=O)=O)cc5)c4c3)cc2)n1`, for which the GI50 was > 100 µM (inactive) in [1]; > 100 µM (inactive) in test [19]; 57.9 µM (inactive) in test [2]; 50.6 µM (inactive) in [3]; > 100 µM (inactive) in test [4]; > 100 µM (inactive) in [5]. Moreover, the GI50 was > 100 µM (inactive) in test [6]; > 100 µM (inactive) in [7]; 59 µM (inactive) in test [8]; > 100 µM (inactive) in test [9]; > 100 µM (inactive) in [10]; 51.3 µM (inactive) in [11]. Moreover, the GI50 is 33 µM (inactive) in test [12]; > 100 µM (inactive) in [13]; 91.2 µM (inactive) in test [14]; 49.2 µM (inactive) in test [15]; > 100 µM (inactive) in test [16]; > 100 µM (inactive) in test [17]. Besides, the GI50 in test [18] is > 100 µM (inactive).

As for `C[N+]1(c2ccccc2)C=C(c2ccccc2)SC1=S` (configuration not stated), the GI50 in test [1], in test [19], in test [2], in test [4], in test [5] and in [6] was > 100 µM (inactive) in each case. Besides, the GI50 in test [7] is > 100 µM (inactive); in test [8] it was > 100 µM (inactive); in [9], > 100 µM (inactive); in [10] it was > 100 µM (inactive); in test [12], 1.87 µM (inactive); in test [13] it was > 100 µM (inactive). The GI50 in test [14] was 66.1 µM (inactive); in test [15], 41.7 µM (inactive); in test [16] it was > 100 µM (inactive); in [17], > 100 µM (inactive); in test [18], > 100 µM (inactive).

Regarding `CCOC(=O)c1c(NC(=O)c2ccccc2)sc2c1CCC2`, the GI50 in test [1], in test [19], in test [20], in test [2], in test [3] and in [4] was > 100 µM (inactive) throughout. In addition, the GI50 in test [5], in test [6], in test [9], in [10], in test [12] and in test [13] was > 100 µM (inactive) in each case. The GI50 in [14], in test [15], in test [16] and in test [18] was > 100 µM (inactive) each time.

As to `O=C(CCc1ccc(O)cc1)c1c(O)cc(O)cc1OC1OC(CO)C(O)C(O)C1O` (configuration not stated), the GI50 in test [20], in test [4], in test [6], in [7], in test [9] and in test [10] was > 100 µM (inactive) in each case. The GI50 in [11], in [13], in test [14], in test [17] and in test [18] was > 100 µM (inactive) throughout.

On to `Cc1cc(O)c(C(c2ccncc2)c2c(O)cc(C)[nH]c2=O)c(=O)[nH]1`, for which the GI50 in test [1], in test [19], in test [20], in test [2], in test [3] and in test [4] was > 100 µM (inactive) throughout. Also, the GI50 in [5], in [8], in [9], in [10], in [12] and in test [13] was > 100 µM (inactive) throughout. The GI50 in [14], in test [15], in test [17] and in test [18] was > 100 µM (inactive) each time.

On to `CCOC(=O)c1c(-c2ccccc2)oc(=O)c(Cc2cccc3cccnc23)c1-c1ccccc1`, for which the GI50 in [1], in [19], in [2], in [3], in test [4] and in [5] was > 10 µM (inactive) each time. In addition, the GI50 in [6], in test [7], in test [8], in test [9], in test [10] and in [11] was > 10 µM (inactive) throughout. The GI50 in [12], in [13], in test [14], in [15], in test [16] and in test [17] was > 10 µM (inactive) throughout. In [18], the GI50 was > 10 µM (inactive).

As to `C(=N\c1ccc(-c2nc3ccccc3s2)cc1)/c1ccco1`, the GI50 was 75.2 µM (inactive) in test [1]; 64.9 µM (inactive) in test [19]; 72.9 µM (inactive) in [20]; 29 µM (inactive) in test [3]; 83 µM (inactive) in test [4]; > 100 µM (inactive) in test [5]. The GI50 was > 100 µM (inactive) in test [6]; 43.5 µM (inactive) in test [7]; 47.6 µM (inactive) in test [8]; 54.2 µM (inactive) in test [9]; > 100 µM (inactive) in test [10]; 39.5 µM (inactive) in test [11]. For the same molecule, the GI50 was 55.7 µM (inactive) in [12]; 2 µM (inactive) in test [13]; > 100 µM (inactive) in test [14]; 56.4 µM (inactive) in [16]; 64.3 µM (inactive) in test [17]; 82 µM (inactive) in test [18].

For `Cc1ccc2c(c1)-c1nc(N)c(C#N)c(-c3ccc(Cl)cc3)c1CCS2(=O)=O`, the GI50 is 55.7 µM (inactive) in test [1]; 32 µM (inactive) in [19]; 39.3 µM (inactive) in [20]; 17.7 µM (inactive) in [2]; 40.6 µM (inactive) in [4]; 50.6 µM (inactive) in test [5]. The GI50 in test [7] is 64.3 µM (inactive); in [8], 40 µM (inactive); in test [9], 28.2 µM (inactive); in test [11] it was 36.1 µM (inactive); in [13] it was 66.4 µM (inactive); in [14], 43 µM (inactive). Moreover, the GI50 in test [16] was 28.4 µM (inactive); in test [17], 31.3 µM (inactive); in test [18], 33 µM (inactive).

For `CNC(=O)C1(N)c2ccccc2C=Cc2ccccc21`, the GI50 in test [1], in test [19], in test [20], in test [2], in test [3] and in test [4] was > 100 µM (inactive) in each case. Further, the GI50 in test [5], in [6], in test [8], in test [9], in [10] and in test [11] was > 100 µM (inactive) each time. Besides, the GI50 in test [13], in [14], in test [15], in test [16], in [17] and in test [18] was > 100 µM (inactive) throughout.

As to `COC(=O)C1(C(=O)OC)Cc2ccc(C)cc2C2=C1C(=O)c1ccccc1C2=O`, the GI50 in test [1] was 19.8 µM (inactive); in test [19], 13.3 µM (inactive); in test [20], 16.5 µM (inactive); in [2] it was 31.6 µM (inactive); in test [3] it was 8.51 µM (inactive); in test [4], 26.4 µM (inactive). In addition, the GI50 was 58.6 µM (inactive) in test [5]; 23.9 µM (inactive) in test [6]; 13.8 µM (inactive) in test [9]; 21 µM (inactive) in test [10]; 20 µM (inactive) in [11]; 57 µM (inactive) in test [13]. Further, the GI50 in test [14] was 24.6 µM (inactive); in [15] it was 15 µM (inactive); in test [16], > 100 µM (inactive); in test [17], 15.6 µM (inactive); in test [18] it was 18.2 µM (inactive).
